{"source": "the NIST ThermoML archive (doi:10.1016/j.jct.2017.06.005)", "conditions": "369.8 K; Liquid; Ebulliometric method (Recirculating still)", "note": "Numbers after ± are expanded uncertainties.", "data": [{"smiles": "CCCO", "note": "[propan-1-ol]", "values": [{"measurement": "vapor or sublimation pressure", "value": "100 ± 2", "unit": "kPa"}]}]}
